Among the test systems are HCT-116 colon; KM12 colon; MALME-3M melanoma; MCF7 breast; MOLT-4 leukemia; NCI-H522 lung; OVCAR-5 ovarian; SF-295 CNS; SNB-19 CNS; SR leukemia; T-47D breast.
Common to all, as to assay: NCI anticancer screen, dose series, 48 h

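The compound was tested at five concentrations on cells cultured in 96-well plates, with a 48-hour exposure period. At the TGI there is no net growth.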 Bounds are passed on as bounds.

On to `CC(C)c1c(P(=O)(c2ccccc2)c2ccccc2)n(C)c2ccccc12`, for which the TGI with HCT-116 colon, in the assay with KM12 colon, in the assay with MALME-3M melanoma, in the assay on MCF7 breast, in the assay on MOLT-4 leukemia and in the assay with NCI-H522 lung was above 100 µM throughout. The TGI in the assay with OVCAR-5 ovarian, in the assay on SF-295 CNS, with SNB-19 CNS, with SR leukemia and in the assay on T-47D breast was above 100 µM each time.

For the molecule `CCOC(=O)C(=O)N1C(C)=C(C(=O)OCC)CC(C(=O)OCC)=C1C`, the TGI in the assay on HCT-116 colon, in the assay on KM12 colon, in the assay on MALME-3M melanoma, in the assay on MCF7 breast, with MOLT-4 leukemia and in the assay with NCI-H522 lung was above 100 µM throughout. For the same molecule, the TGI in the assay on OVCAR-5 ovarian, with SF-295 CNS, in the assay with SNB-19 CNS, with SR leukemia and in the assay on T-47D breast was above 100 µM in each case.

In the case of `Cc1nc(Cl)c(CBr)c(Cl)n1`, the TGI in the assay on HCT-116 colon amounted to 1.19 µM; in the assay with KM12 colon, 2.72 µM; with MALME-3M melanoma, 2.92 µM; in the assay on MCF7 breast, 2.17 µM; with MOLT-4 leukemia, 1.09 µM; in the assay on NCI-H522 lung, 1.15 µM. Moreover, the TGI with OVCAR-5 ovarian is 3.84 µM; in the assay on SF-295 CNS, 22.9 µM; in the assay with SNB-19 CNS it was 11.2 µM; in the assay on SR leukemia, 0.554 µM; in the assay on T-47D breast, 4.5 µM.

With `CCOC(=O)c1c(SCCN2CCCC2)n(-c2ccccc2)c(=S)n(-c2ccccc2)c1=O`, the TGI with HCT-116 colon came to 8.39 µM; in the assay on KM12 colon, 29.8 µM; in the assay on MALME-3M melanoma it was 3.36 µM; in the assay with MCF7 breast, 3.36 µM; with MOLT-4 leukemia, 5.11 µM; in the assay on NCI-H522 lung it was 4.08 µM. Also, the TGI is above 59.5 µM in the assay with OVCAR-5 ovarian; above 75.7 µM in the assay with SF-295 CNS; 31.2 µM in the assay with SNB-19 CNS; 2.05 µM in the assay with SR leukemia; 9.41 µM with T-47D breast.

For the molecule `Cc1cc(C)c2c(n1)S(=O)(=O)N(CCCN1CCN(c3cccc(C(F)(F)F)c3)CC1)/C(=C(\O)c1ccc(Cl)cc1)C2=O`, the TGI came out at 11.9 µM with HCT-116 colon; 14.6 µM in the assay with KM12 colon; 15.8 µM with MALME-3M melanoma; 14 µM in the assay with MCF7 breast; 4 µM with MOLT-4 leukemia; 14.8 µM in the assay with NCI-H522 lung. Moreover, the TGI was 18.1 µM in the assay with OVCAR-5 ovarian; 14.2 µM in the assay on SF-295 CNS; 16.6 µM with SNB-19 CNS; above 100 µM with SR leukemia; 38.9 µM in the assay on T-47D breast.

With `CC1=CC(=O)N(n2c(C)n[nH]c2=O)C1=O`, the TGI in the assay on HCT-116 colon, in the assay on KM12 colon, in the assay on MALME-3M melanoma, in the assay with MCF7 breast, in the assay on MOLT-4 leukemia and with NCI-H522 lung was above 100 µM in each case. Moreover, the TGI in the assay on OVCAR-5 ovarian, with SF-295 CNS, in the assay on SNB-19 CNS, in the assay on SR leukemia and in the assay with T-47D breast was above 100 µM throughout.

As for `O=C1/C(=C/c2ccc(Br)s2)NC(=S)N1CN1CCOCC1`, the TGI was above 100 µM in the assay with HCT-116 colon; above 100 µM in the assay on KM12 colon; above 100 µM in the assay with MALME-3M melanoma; 52.8 µM in the assay on MCF7 breast; above 100 µM with MOLT-4 leukemia; above 100 µM in the assay on NCI-H522 lung. Besides, the TGI is above 100 µM with OVCAR-5 ovarian; above 100 µM in the assay on SF-295 CNS; above 100 µM in the assay with SNB-19 CNS; 55.2 µM in the assay with SR leukemia; above 100 µM in the assay with T-47D breast.

Turning to `COC(=O)CCCC(=O)C(=Nc1c(Cl)cccc1Cl)NNc1ccc(Cl)cc1`, the TGI in the assay on HCT-116 colon was above 100 µM; with KM12 colon, above 100 µM; with MALME-3M melanoma, above 100 µM; in the assay with MCF7 breast it was above 100 µM; in the assay on MOLT-4 leukemia, 76.6 µM; in the assay on NCI-H522 lung it was above 85.7 µM. In addition, the TGI with OVCAR-5 ovarian, in the assay on SF-295 CNS, with SNB-19 CNS, in the assay with SR leukemia and with T-47D breast was above 100 µM each time.

Consider `CCOC(=O)C1C(=O)CC(O)(c2ccccc2)C(C(=O)OCC)C1c1ccc(OC)cc1` (stereo not given), for which the TGI with HCT-116 colon was above 47 µM; in the assay on KM12 colon, 39.8 µM; in the assay on MALME-3M melanoma, above 100 µM; with MCF7 breast it was above 100 µM; in the assay on MOLT-4 leukemia, above 82 µM; with NCI-H522 lung, 38.2 µM. Further, the TGI in the assay with OVCAR-5 ovarian is above 100 µM; in the assay with SF-295 CNS it was 17.5 µM; in the assay with SNB-19 CNS, above 72.5 µM; with SR leukemia, 32.5 µM; with T-47D breast, above 100 µM.

Take `CCOc1ccc(N=C/C=C(\Cl)c2ccc3ccccc3c2)cc1`: the TGI is 21.6 µM with HCT-116 colon; 33.9 µM with KM12 colon; 30.6 µM in the assay on MALME-3M melanoma; 55.1 µM in the assay on MCF7 breast; 6.16 µM in the assay on MOLT-4 leukemia; 52.1 µM in the assay with NCI-H522 lung. Besides, the TGI in the assay with OVCAR-5 ovarian came to 36.3 µM; in the assay with SF-295 CNS it was 36 µM; in the assay on SNB-19 CNS, 35.7 µM; with SR leukemia, 5.31 µM; in the assay with T-47D breast, 22.3 µM.

These data come from PubChem BioAssay (NCI).
